Results as given in patent US20230272083A1, “COMBINATION OF AN ANTI-PD-L1 ANTIBODY AND A DNA-PK INHIBITOR FOR THE TREATMENT OF CANCER” (Merck Patent GmbH, priority 2017, published 2023).

How the values were obtained:
[1] = test system: human PBMC-derived immune cells; assay: Effect of culture media from M3814-induced senescent cells on immune cells (live imaging); format: cell-based
Protocol: (§1) These substantial changes in gene expression were built gradually and correlated with the development of senescence phenotype. Several proteins from the induced subset were measured in the cell media (Meso Scale Discovery) and confirmed that they are secreted by senescent cells in the absence of M3814.

[2] = test system: p53 wild-type cancer cells (A549, A375, H460); assay: Cell cycle arrest and senescence after ionizing radiation plus M3814; format: cell-based
[3] = test system: murine colon tumor model MC38; assay: M3814 and avelumab in syngeneic MC38 tumor model (Example 1); format: in vivo, C57BL6/N mice; conditions: M3814 150 mg/kg orally once daily, avelumab 400 μg/mouse intravenously on days 3, 6 and 9; for median time the tumors needed to double in size as compared to their initial volume at day 0: Kaplan-Meyer evaluation
From the text: This model allows the use of immunocompetent mice, a necessary requirement to study the T-cell mediated antitumor effect of Avelumab. The experimental set up included the induction of MC38 tumors in C57BL6/N mice by injection of 1×10^6 tumor cells into the right flank of the animals. Tumor growth was followed over time by measuring length and width using a caliper. When tumors were established to an average size of 50-100 mm^3, mice were subdivided in 4 treatment groups with 10 animals each, and treatment started. This day was defined as day 0. Group 1 received vehicle treatment. Group 2 received M3814 orally once daily at 150 mg/kg in a volume of 10 ml/kg. Group 3 received avelumab intravenously once daily at 400 μg/mouse in a volume of 5 ml/kg on days 3, 6 and 9. Group 4 received M3814 orally once daily at 150 mg/kg in a volume of 10 ml/kg and avelumab intravenously once daily at 400 μg/mouse in a volume of 5 ml/kg on days 3, 6 and 9.

A549 and A375 cells = assay: Nanostring PanCancer Immune panel mRNA analysis of IR/M3814 induced senescent cells; format: cell-based
Protocol: as §1

DNA-PK = DNA-PK (Homo sapiens, UniProt P78527); assay: Crystallographic and enzyme kinetics studies; format: biochemical
From the text: DNA-PK, together with five additional protein factors (Ku70, Ku80, XRCC4, Ligase IV and Artemis) plays a critical role in the repair of DSB via NHEJ. Kinase activity of DNA-PK is essential for proper and timely DNA repair and the long-term survival of cancer cells.

[4] = 10 mg/kg dose; cited from earlier work

Compound | immunomodulatory effect of culture media from M3814-induced senescent cells [1] | reversibility of senescence phenotype following compound removal ([2]; A549 cells, live cell imaging and BrdU labeling) | time to typical senescence phenotype (large/flat morphology, β-Gal staining) ([2]; IR 2-5Gy plus sustained M3814) | ATM dependent signaling, including CHK2 and p53-dependent cell cycle arrest ([2]; in the presence of DDSBs) | cell cycle arrest in isogenic p53-null cells ([2]; isogenic p53-null A549 cells, IR plus M3814) | cell cycle effect ([2]; proliferating p53 wild-type A549, A375, H460, single dose of ionizing radiation (2-5Gy) and sustained exposure to M3814) | median time the tumors needed to double in size as compared to their initial volume at day 0 [3] [days] | T/C values calculated at day 13 [3] [%] | upregulation of eighteen immune response genes compared to controls (A549 and A375 cells) | inhibition of DNA-PK (DNA-PK) | receptor occupancy [4] | tolerability [4]
COc1ccc([C@@H](O)c2cc(-c3ncnc4cc(N5CCOCC5)ccc34)c(F)cc2Cl)nn1 [Compound M3814, (S)-[2-chloro-4-fluoro-5-(7-morpholin-4-yl-quinazolin-4-yl)-phenyl]-(6-methoxypyridazin-3-yl)-methanol] | increased immunomodulatory effect | not reversible | 4-7 days | enhanced activation of the ATM dependent signaling | lost the ability to fully arrest their cell cycle | complete cell cycle block | 10 | 47 | 3-150 fold | potent and selective ATP-competitive inhibitor |  | 
avelumab: fully human monoclonal antibody of the immunoglobulin (Ig) G1 isotype; selectively binds to PD-L1 |  |  |  |  |  |  | 13 | 60 |  |  | excellent receptor occupancy | well tolerated
